Experiment: Cys-Lys stapling of unprotected peptides with unsymmetrical linker (1.5 equiv): Cys thiol displaces phthalimide from N-thiophthalimide (disulfide, ~1 min), then ring closure by Lys amine attack on pentafluorophenyl ester with DIPEA (4 equiv)
Settings: the molecule shown is the open-chain precursor, CH3CN:H2O 3:1, 25.0 °C, 0.167 h

## CC(=O)N[C@@H](CCC(N)=O)C(=O)N[C@@H](CO)C(=O)N[C@@H](CCC(N)=O)C(=O)N[C@@H](CCC(N)=O)C(=O)N[C@H](C(=O)N[C@@H](Cc1ccccc1)C(=O)N[C@@H](CSS/C(=C/Cl)CCC(=O)Oc1c(F)c(F)c(F)c(F)c1F)C(=O)N[C@@H](CC(N)=O)C(=O)N[C@@H](CC(C)C)C(=O)N[C@@H](Cc1c[nH]c2ccccc12)C(=O)N[C@@H](CCCNC(=N)N)C(=O)N[C@@H](CC(C)C)C(=O)N[C@@H](CC(C)C)C(=O)N[C@@H](CCCCN)C(=O)N[C@@H](CCC(N)=O)C(=O)N[C@@H](CC(N)=O)C(N)=O)[C@@H](C)O
34-membered ring
  ring closure, isolated yield: 79%

## CC(=O)N[C@@H](CCC(N)=O)C(=O)N[C@@H](CO)C(=O)N[C@@H](CCC(N)=O)C(=O)N[C@@H](CCC(N)=O)C(=O)N[C@H](C(=O)N[C@@H](Cc1ccccc1)C(=O)N[C@@H](CSS/C(=C/Cl)CCCCC(=O)Oc1c(F)c(F)c(F)c(F)c1F)C(=O)N[C@@H](CC(N)=O)C(=O)N[C@@H](CC(C)C)C(=O)N[C@@H](Cc1c[nH]c2ccccc12)C(=O)N[C@@H](CCCNC(=N)N)C(=O)N[C@@H](CC(C)C)C(=O)N[C@@H](CC(C)C)C(=O)N[C@@H](CCCCN)C(=O)N[C@@H](CCC(N)=O)C(=O)N[C@@H](CC(N)=O)C(N)=O)[C@@H](C)O
36-membered ring
  ring closure, isolated yield: 84%

## CC(=O)N[C@@H](CCC(N)=O)C(=O)N[C@@H](CO)C(=O)N[C@@H](CCC(N)=O)C(=O)N[C@@H](CCC(N)=O)C(=O)N[C@H](C(=O)N[C@@H](Cc1ccccc1)C(=O)N[C@@H](CSS/C(=C/Cl)CCCCCC(=O)Oc1c(F)c(F)c(F)c(F)c1F)C(=O)N[C@@H](CC(N)=O)C(=O)N[C@@H](CC(C)C)C(=O)N[C@@H](Cc1c[nH]c2ccccc12)C(=O)N[C@@H](CCCNC(=N)N)C(=O)N[C@@H](CC(C)C)C(=O)N[C@@H](CC(C)C)C(=O)N[C@@H](CCCCN)C(=O)N[C@@H](CCC(N)=O)C(=O)N[C@@H](CC(N)=O)C(N)=O)[C@@H](C)O
37-membered ring
  ring closure, isolated yield: 78%

## CC(=O)N[C@@H](CCC(N)=O)C(=O)N[C@@H](CO)C(=O)N[C@@H](CCC(N)=O)C(=O)N[C@@H](CCC(N)=O)C(=O)N[C@H](C(=O)N[C@@H](Cc1ccccc1)C(=O)N[C@@H](CSS/C(=C/Cl)CCOc1ccccc1C(=O)Oc1c(F)c(F)c(F)c(F)c1F)C(=O)N[C@@H](CC(N)=O)C(=O)N[C@@H](CC(C)C)C(=O)N[C@@H](Cc1c[nH]c2ccccc12)C(=O)N[C@@H](CCCNC(=N)N)C(=O)N[C@@H](CC(C)C)C(=O)N[C@@H](CC(C)C)C(=O)N[C@@H](CCCCN)C(=O)N[C@@H](CCC(N)=O)C(=O)N[C@@H](CC(N)=O)C(N)=O)[C@@H](C)O
37-membered ring
  ring closure, isolated yield: 65%

## CC(=O)N[C@@H](CCC(N)=O)C(=O)N[C@@H](CO)C(=O)N[C@@H](CCC(N)=O)C(=O)N[C@@H](CCC(N)=O)C(=O)N[C@H](C(=O)N[C@@H](Cc1ccccc1)C(=O)N[C@@H](CSS/C(=C/Cl)COCC(=O)Oc1c(F)c(F)c(F)c(F)c1F)C(=O)N[C@@H](CC(N)=O)C(=O)N[C@@H](CC(C)C)C(=O)N[C@@H](Cc1c[nH]c2ccccc12)C(=O)N[C@@H](CCCNC(=N)N)C(=O)N[C@@H](CC(C)C)C(=O)N[C@@H](CC(C)C)C(=O)N[C@@H](CCCCN)C(=O)N[C@@H](CCC(N)=O)C(=O)N[C@@H](CC(N)=O)C(N)=O)[C@@H](C)O
35-membered ring
  ring closure, isolated yield: 89%

## CC(=O)N[C@H](C(=O)N[C@@H](CO)C(=O)N[C@@H](Cc1ccccc1)C(=O)N[C@@H](CCCCN)C(=O)N[C@@H](CCC(N)=O)C(=O)N[C@@H](Cc1ccc(O)cc1)C(=O)N[C@@H](Cc1c[nH]c2ccccc12)C(=O)N[C@@H](CSS/C(=C/Cl)CCC(=O)Oc1c(F)c(F)c(F)c(F)c1F)C(=O)N[C@@H](CC(C)C)C(=O)N[C@@H](CC(C)C)C(=O)N[C@@H](CO)C(=O)N[C@@H](CCCNC(=N)N)C(N)=O)[C@@H](C)O
25-membered ring
  ring closure, isolated yield: 69%

## CC(=O)N[C@H](C(=O)N[C@@H](CO)C(=O)N[C@@H](Cc1ccccc1)C(=O)N[C@@H](CCCCN)C(=O)N[C@@H](CCC(N)=O)C(=O)N[C@@H](Cc1ccc(O)cc1)C(=O)N[C@@H](Cc1c[nH]c2ccccc12)C(=O)N[C@@H](CSS/C(=C/Cl)CCCC(=O)Oc1c(F)c(F)c(F)c(F)c1F)C(=O)N[C@@H](CC(C)C)C(=O)N[C@@H](CC(C)C)C(=O)N[C@@H](CO)C(=O)N[C@@H](CCCNC(=N)N)C(N)=O)[C@@H](C)O
26-membered ring
  ring closure, isolated yield: 85%

## CC(=O)N[C@H](C(=O)N[C@@H](CO)C(=O)N[C@@H](Cc1ccccc1)C(=O)N[C@@H](CCCCN)C(=O)N[C@@H](CCC(N)=O)C(=O)N[C@@H](Cc1ccc(O)cc1)C(=O)N[C@@H](Cc1c[nH]c2ccccc12)C(=O)N[C@@H](CSS/C(=C/Cl)CCCCC(=O)Oc1c(F)c(F)c(F)c(F)c1F)C(=O)N[C@@H](CC(C)C)C(=O)N[C@@H](CC(C)C)C(=O)N[C@@H](CO)C(=O)N[C@@H](CCCNC(=N)N)C(N)=O)[C@@H](C)O
27-membered ring
  ring closure, isolated yield: 76%

## CC(=O)N[C@H](C(=O)N[C@@H](CO)C(=O)N[C@@H](Cc1ccccc1)C(=O)N[C@@H](CCCCN)C(=O)N[C@@H](CCC(N)=O)C(=O)N[C@@H](Cc1ccc(O)cc1)C(=O)N[C@@H](Cc1c[nH]c2ccccc12)C(=O)N[C@@H](CSS/C(=C/Cl)CCCCCCCCC(=O)Oc1c(F)c(F)c(F)c(F)c1F)C(=O)N[C@@H](CC(C)C)C(=O)N[C@@H](CC(C)C)C(=O)N[C@@H](CO)C(=O)N[C@@H](CCCNC(=N)N)C(N)=O)[C@@H](C)O
31-membered ring
  ring closure, isolated yield: 68%

## CC(=O)N[C@H](C(=O)N[C@@H](CO)C(=O)N[C@@H](Cc1ccccc1)C(=O)N[C@@H](CCCCN)C(=O)N[C@@H](CCC(N)=O)C(=O)N[C@@H](Cc1ccc(O)cc1)C(=O)N[C@@H](Cc1c[nH]c2ccccc12)C(=O)N[C@@H](CSS/C(=C/Cl)CCOc1cccc(C(=O)Oc2c(F)c(F)c(F)c(F)c2F)c1)C(=O)N[C@@H](CC(C)C)C(=O)N[C@@H](CC(C)C)C(=O)N[C@@H](CO)C(=O)N[C@@H](CCCNC(=N)N)C(N)=O)[C@@H](C)O
29-membered ring
  ring closure, isolated yield: 85%

## CC(=O)N[C@H](C(=O)N[C@@H](CO)C(=O)N[C@@H](Cc1ccccc1)C(=O)N[C@@H](CCCCN)C(=O)N[C@@H](CCC(N)=O)C(=O)N[C@@H](Cc1ccc(O)cc1)C(=O)N[C@@H](Cc1c[nH]c2ccccc12)C(=O)N[C@@H](CSS/C(=C/Cl)CCOc1ccccc1C(=O)Oc1c(F)c(F)c(F)c(F)c1F)C(=O)N[C@@H](CC(C)C)C(=O)N[C@@H](CC(C)C)C(=O)N[C@@H](CO)C(=O)N[C@@H](CCCNC(=N)N)C(N)=O)[C@@H](C)O
28-membered ring
  ring closure, isolated yield: 82%

## CC(=O)N[C@H](C(=O)N[C@@H](CO)C(=O)N[C@@H](Cc1ccccc1)C(=O)N[C@@H](CCCCN)C(=O)N[C@@H](CCC(N)=O)C(=O)N[C@@H](Cc1ccc(O)cc1)C(=O)N[C@@H](Cc1c[nH]c2ccccc12)C(=O)N[C@@H](CSS/C(=C/Cl)COCC(=O)Oc1c(F)c(F)c(F)c(F)c1F)C(=O)N[C@@H](CC(C)C)C(=O)N[C@@H](CC(C)C)C(=O)N[C@@H](CO)C(=O)N[C@@H](CCCNC(=N)N)C(N)=O)[C@@H](C)O
26-membered ring
  ring closure, isolated yield: 78%

## CC(=O)N[C@H](C(=O)N[C@@H](CO)C(=O)N[C@@H](Cc1ccccc1)C(=O)N[C@@H](CCCCN)C(=O)N[C@@H](CCC(N)=O)C(=O)N[C@@H](Cc1ccc(O)cc1)C(=O)N[C@@H](Cc1c[nH]c2ccccc12)C(=O)N[C@@H](CSS/C(=C/Cl)c1cccc(C(=O)Oc2c(F)c(F)c(F)c(F)c2F)c1)C(=O)N[C@@H](CC(C)C)C(=O)N[C@@H](CC(C)C)C(=O)N[C@@H](CO)C(=O)N[C@@H](CCCNC(=N)N)C(N)=O)[C@@H](C)O
26-membered ring
  ring closure, isolated yield: 84%
